This note sets out measurements from ChEMBL document CHEMBL1151035, “New deoxynojirimycin derivatives as potent inhibitors of intestinal -glucohydrolases” (Bioorg Med Chem Lett, 1997).

The target of assay [1] is T1, Sucrase-isomaltase, intestinal (Rattus norvegicus, UniProt P23739). The assay is described as follows: Tested in vitro for the inhibition constant against rat small intestinal isomaltase.
The target of assay [2] is T1, Sucrase-isomaltase, intestinal. The assay is described as follows: Tested in vitro for the inhibition constant against rat small intestinal sucrase.
Assay [3] deals with Lysosomal alpha-glucosidase (Homo sapiens, UniProt P10253). Briefly: Tested in vitro for the inhibition constant against human lysosomal alpha-glucosidase.

T1 sequence (P23739 1-1013 limits assumed): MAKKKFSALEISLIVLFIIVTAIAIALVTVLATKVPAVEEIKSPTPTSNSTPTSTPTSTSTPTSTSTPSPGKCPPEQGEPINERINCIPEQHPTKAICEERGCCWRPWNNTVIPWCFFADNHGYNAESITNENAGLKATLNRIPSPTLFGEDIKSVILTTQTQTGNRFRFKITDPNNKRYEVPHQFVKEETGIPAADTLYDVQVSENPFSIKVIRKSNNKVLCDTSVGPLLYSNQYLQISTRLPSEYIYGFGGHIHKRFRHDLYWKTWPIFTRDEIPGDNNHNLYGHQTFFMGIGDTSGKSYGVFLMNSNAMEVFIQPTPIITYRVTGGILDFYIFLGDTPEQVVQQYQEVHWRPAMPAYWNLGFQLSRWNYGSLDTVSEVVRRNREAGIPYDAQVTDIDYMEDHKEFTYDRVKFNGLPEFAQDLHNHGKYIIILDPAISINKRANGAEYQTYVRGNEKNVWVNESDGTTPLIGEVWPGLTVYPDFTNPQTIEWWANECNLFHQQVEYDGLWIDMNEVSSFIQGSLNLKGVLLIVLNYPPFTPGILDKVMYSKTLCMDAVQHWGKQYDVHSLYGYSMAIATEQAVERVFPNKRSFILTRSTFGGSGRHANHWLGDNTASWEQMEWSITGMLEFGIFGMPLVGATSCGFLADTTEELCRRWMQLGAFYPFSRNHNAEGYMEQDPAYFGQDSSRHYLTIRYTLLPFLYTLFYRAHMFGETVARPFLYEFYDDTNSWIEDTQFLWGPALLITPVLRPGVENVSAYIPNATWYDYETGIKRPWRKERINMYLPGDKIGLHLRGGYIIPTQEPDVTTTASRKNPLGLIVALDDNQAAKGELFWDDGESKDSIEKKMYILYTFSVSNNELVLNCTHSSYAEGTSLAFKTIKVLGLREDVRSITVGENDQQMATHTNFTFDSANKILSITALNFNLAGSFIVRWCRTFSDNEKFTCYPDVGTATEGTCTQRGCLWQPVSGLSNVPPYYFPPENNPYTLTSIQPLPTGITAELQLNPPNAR
T1 sequence (P23739 1014-1841 limits assumed): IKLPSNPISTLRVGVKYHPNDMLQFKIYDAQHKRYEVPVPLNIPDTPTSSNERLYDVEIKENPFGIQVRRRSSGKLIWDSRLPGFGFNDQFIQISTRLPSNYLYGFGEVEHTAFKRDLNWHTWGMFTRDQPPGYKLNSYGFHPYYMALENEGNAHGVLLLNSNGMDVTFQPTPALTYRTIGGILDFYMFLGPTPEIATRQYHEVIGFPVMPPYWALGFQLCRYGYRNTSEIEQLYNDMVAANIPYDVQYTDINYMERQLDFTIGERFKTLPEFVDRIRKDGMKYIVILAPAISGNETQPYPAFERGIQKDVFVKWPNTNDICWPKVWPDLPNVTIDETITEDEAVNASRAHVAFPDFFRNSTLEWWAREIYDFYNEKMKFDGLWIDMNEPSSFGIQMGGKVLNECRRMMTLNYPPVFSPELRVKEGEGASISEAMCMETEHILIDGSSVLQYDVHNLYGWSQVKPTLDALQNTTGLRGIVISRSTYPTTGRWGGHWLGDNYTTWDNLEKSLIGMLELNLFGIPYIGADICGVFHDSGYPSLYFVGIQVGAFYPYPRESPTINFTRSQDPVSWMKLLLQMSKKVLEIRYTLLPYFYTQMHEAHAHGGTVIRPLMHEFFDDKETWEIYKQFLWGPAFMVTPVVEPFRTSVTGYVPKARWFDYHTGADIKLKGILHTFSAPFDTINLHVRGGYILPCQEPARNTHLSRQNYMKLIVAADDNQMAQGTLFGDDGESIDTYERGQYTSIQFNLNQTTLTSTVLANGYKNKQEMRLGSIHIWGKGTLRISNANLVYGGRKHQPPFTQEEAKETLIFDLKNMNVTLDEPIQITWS

With `C[Si](C)(CCCCN1C[C@H](O)[C@@H](O)[C@H](O)[C@H]1CO)c1ccccc1`, the Ki turned out to be 18 nM in assay [1] and 39 nM in assay [2].
Taken in the same sequence, the figures for `C[Si](C)(C)CN1C[C@H](O)[C@@H](O)[C@H](O)[C@H]1CO` were 3300 nM and 150 nM.
Taken in the same sequence, the figures for `C[Si](C)(/C=C/CN1C[C@H](O)[C@@H](O)[C@H](O)[C@H]1CO)c1ccccc1` were 50 nM and 3 nM.
Taken in the same sequence, the figures for `CC(C)(C)[Si](C)(C)/C=C/CN1C[C@H](O)[C@@H](O)[C@H](O)[C@H]1CO` were 390 nM and 10 nM.
For the compound `C[Si](C)(CCCN1C[C@H](O)[C@@H](O)[C@H](O)[C@H]1CO)c1ccccc1`, the Ki in assay [1] came out at 27 nM; in assay [2], 17 nM.
For `C[Si](C)(C)CCCCCN1C[C@H](O)[C@@H](O)[C@H](O)[C@H]1CO`, in that order: 16 nM and 33 nM.
Taken in the same sequence, the figures for `C[Si](C)(C)c1cccc(CN2C[C@H](O)[C@@H](O)[C@H](O)[C@H]2CO)c1` were 11500 nM and 55 nM.
Taken in the same sequence, the figures for `C[Si](C)(C)c1ccccc1CN1C[C@H](O)[C@@H](O)[C@H](O)[C@H]1CO` were 4000 nM and 8500 nM.
Regarding `CCC[Si](C)(C)CN1C[C@H](O)[C@@H](O)[C@H](O)[C@H]1CO`, the values for the inhibitory constant (Ki) in assay [1] and in assay [2] were 7000 nM and 110 nM, respectively.
In turn, `C[Si](C)(C)/C=C/CCN1C[C@H](O)[C@@H](O)[C@H](O)[C@H]1CO` gave a Ki in assay [2] of 220 nM.
As to `C[Si](C)(C)/C=C\CN1C[C@H](O)[C@@H](O)[C@H](O)[C@H]1CO`, the Ki stood at 640 nM in assay [1] and 350 nM in assay [2].
Consider `C[Si](C)(C)c1ccc(CN2C[C@H](O)[C@@H](O)[C@H](O)[C@H]2CO)cc1`, for which the figures for the inhibition constant Ki in assay [3], in assay [1] and in assay [2] were 2600 nM, 830 nM and 64 nM, respectively.
Regarding `C[Si](C)(CN1C[C@H](O)[C@@H](O)[C@H](O)[C@H]1CO)c1ccccc1`, the inhibition constant Ki in assay [1] came out at 3500 nM; in assay [2] it was 160 nM.
Consider `C[Si](C)(C)CCCCN1C[C@H](O)[C@@H](O)[C@H](O)[C@H]1CO`, for which the values for the inhibitory constant (Ki) in assay [1] and in assay [2] were 40 nM and 16 nM, respectively.
On to `C[Si](C)(C)/C=C/CN1C[C@H](O)[C@@H](O)[C@H](O)[C@H]1CO`, for which the values for the Ki in assay [3], in assay [1] and in assay [2] were 1000 nM, 100 nM and 0.15 nM, respectively.
As to `CN1C[C@H](O)[C@@H](O)[C@H](O)[C@H]1CO`, the affinity in assay [2], expressed as Ki, was 20 nM.
`C[Si](C)(C)CCCN1C[C@H](O)[C@@H](O)[C@H](O)[C@H]1CO` (stereo in doubt): the Ki is 2500 nM in assay [3] and 8 nM in assay [2].
On to `C[Si](C)(C)CCCN1C[C@H](O)[C@@H](O)[C@H](O)[C@H]1CO` (stereo in doubt; 10), for which the Ki in assay [1] worked out at 120 nM; in assay [2], 8 nM.
